T/C data for 19 compounds are collected here from PubChem BioAssay AID330 (DTP/NCI, 2004).

“And” between values parts separate entries of the source, which are not always exact repeats. Equal entries are not always repeated. Inconclusive results and toxic doses are left out.

The assay relates to P388 leukemia ip, CD2F1 mice, survival T/C. The assay can be described thus: NCI In Vivo Anticancer Drug Screen. Data for tumor model P388 Leukemia (intraperitoneal) in CD2F1 (CDF1) mice. Conditions: endpoint: median survival time, higher = longer survival. A digest of the protocol: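 Mice carrying the transplanted tumor received test compound or vehicle. Survival was recorded in each group, and the value is the treated-group measurement divided by that of the vehicle-treated control group.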

Setting [1] is: dose: 12.5 mg/kg/injection, schedule: Q01DX005 (ip), vehicle: saline with Tween-80.
Setting [2] is: dose: 50.0 mg/kg/injection, schedule: Q01DX005 (ip), vehicle: saline with Tween-80.
The mark [3] stands for this setting: dose: 50.0 mg/kg/injection, schedule: Q01DX009 (ip), vehicle: saline with Tween-80.
The mark [4] stands for this setting: dose: 100.0 mg/kg/injection, schedule: Q01DX009 (ip), vehicle: saline with Tween-80.
[5] abbreviates: dose: 200.0 mg/kg/injection, schedule: Q01DX009 (ip), vehicle: saline with Tween-80.
Where [6] appears, read: dose: 50.0 mg/kg/injection, schedule: Q01DX005 (ip), vehicle: Klucel (hydroxypropylcellulose) (HPC).

For `O=C1C=CC(=CC=C2C=CN(CCCCCCCCCCCO)C=C2)C=C1`, the T/C reads like this: (dose: 1.56 mg/kg/injection, schedule: Q01DX005 (ip), vehicle: saline with Tween-80) 111 % of control; (dose: 3.12 mg/kg/injection, schedule: Q01DX005 (ip), vehicle: saline with Tween-80) 114 % of control and 118 % of control; (dose: 6.25 mg/kg/injection, schedule: Q01DX005 (ip), vehicle: saline with Tween-80) 121 % of control; (dose: 7.5 mg/kg/injection, schedule: Q01DX005 (ip), vehicle: saline with Tween-80) 109 % of control; under setting [1], 118 % of control and 121 % of control; (dose: 15.0 mg/kg/injection, schedule: Q01DX005 (ip), vehicle: saline with Tween-80) 109 % of control and 111 % of control. In addition, the T/C runs as follows: (dose: 30.0 mg/kg/injection, schedule: Q01DX005 (ip), vehicle: saline with Tween-80) 118 % of control; under setting [2], 100 % of control.

With `COC1CCCCC1C(=O)C(C#N)C1CCCCC1C1CCCCC1` (centres undefined), the T/C under setting [2] is 100 % of control; the T/C (dose: 100.0 mg/kg/injection, schedule: Q01DX005 (ip), vehicle: saline with Tween-80) is 98 % of control; the T/C (dose: 200.0 mg/kg/injection, schedule: Q01DX005 (ip), vehicle: saline with Tween-80) is 96 % of control.

Turning to `O=C(O)c1ccccc1-c1c2cc(Br)c(=O)cc-2oc2[c]([Hg])c(O)c(Br)cc12`, the T/C was 106 % of control (dose: 6.25 mg/kg/injection, schedule: Q01DX005 (ip), vehicle: saline); 109 % of control (dose: 12.5 mg/kg/injection, schedule: Q01DX005 (ip), vehicle: saline); 107 % of control (dose: 25.0 mg/kg/injection, schedule: Q01DX005 (ip), vehicle: saline).

Turning to `C=C1C(=O)OC(CCCCCCCCCCCCC)C1C(=O)O` (centres undefined), the T/C by setting is: (dose: 0.25 mg/kg/injection, schedule: Q01DX009 (ip), vehicle: saline with Tween-80) 99 % of control; (dose: 0.5 mg/kg/injection, schedule: Q01DX009 (ip), vehicle: saline with Tween-80) 101 % of control; (dose: 1.0 mg/kg/injection, schedule: Q01DX009 (ip), vehicle: saline with Tween-80) 100 % of control.

With `CCOC(=O)C12C3C(=O)N(CC)C(=O)C3ON1OC1C(=O)N(CC)C(=O)C12` (centres undefined), the T/C is 100 % of control (dose: 60.0 mg/kg/injection, schedule: Q01DX005 (ip), vehicle: saline with Tween-80); 100 % of control (dose: 120.0 mg/kg/injection, schedule: Q01DX005 (ip), vehicle: saline with Tween-80); 95 % of control (dose: 240.0 mg/kg/injection, schedule: Q01DX005 (ip), vehicle: saline with Tween-80).

Take `CCN(CC)C(=O)c1ccc(C)c2c1Nc1c(c(C)c3oc(=O)c(C)nc3c1C(=O)N(CC)CC)O2`: the T/C is 97 % of control (dose: 7.5 mg/kg/injection, schedule: Q01DX005 (ip), vehicle: Klucel (hydroxypropylcellulose) (HPC)); 90 % of control (dose: 15.0 mg/kg/injection, schedule: Q01DX005 (ip), vehicle: Klucel (hydroxypropylcellulose) (HPC)); 88 % of control (dose: 120.0 mg/kg/injection, schedule: Q01DX005 (ip), vehicle: Klucel (hydroxypropylcellulose) (HPC)); 92 % of control (dose: 240.0 mg/kg/injection, schedule: Q01DX005 (ip), vehicle: Klucel (hydroxypropylcellulose) (HPC)).

Consider `C/C(=C\Cl)CO`, for which the T/C is, setting by setting: (dose: 25.0 mg/kg/injection, schedule: Q01DX009 (ip), vehicle: saline with Tween-80) 111 % of control; under setting [3], 111 % of control; under setting [4], 94 % of control.

As to `C=CC(/C=C\c1ccc(OC2OC(CO)C(O)C(O)C2O)cc1)c1ccc(OC2OC(CO)C(O)C(O)C2O)cc1` (centres undefined), the T/C is, setting by setting: (dose: 60.0 mg/kg/injection, schedule: Q01DX005 (ip), vehicle: saline) 97 % of control; (dose: 120.0 mg/kg/injection, schedule: Q01DX005 (ip), vehicle: saline) 103 % of control; (dose: 240.0 mg/kg/injection, schedule: Q01DX005 (ip), vehicle: saline) 92 % of control.

Take `CC(=O)OC(OC(C)=O)c1ccc([N+](=O)[O-])s1`: the T/C (dose: 50.0 mg/kg/injection, schedule: Q01DX009 (ip), vehicle: Klucel (hydroxypropylcellulose) (HPC)) was 109 % of control and the T/C (dose: 100.0 mg/kg/injection, schedule: Q01DX009 (ip), vehicle: Klucel (hydroxypropylcellulose) (HPC)) is 87 % of control.

Take `O=c1cc[nH]c(=S)[nH]1.[Cu+2]`: the T/C is 100 % of control (dose: 1.56 mg/kg/injection, schedule: Q01DX009 (ip), vehicle: DMSO); 99 % of control (dose: 3.12 mg/kg/injection, schedule: Q01DX009 (ip), vehicle: DMSO); 86 % of control (dose: 6.25 mg/kg/injection, schedule: Q01DX009 (ip), vehicle: DMSO); 100 % of control (dose: 12.5 mg/kg/injection, schedule: Q01DX009 (ip), vehicle: DMSO).

Regarding `COc1cc2c(cc1O)C(CSC)Cc1cc(OC)c(OC)cc1N(C)CC2` (centres undefined), the T/C is, setting by setting: under setting [3], 104 % of control; under setting [4], 101 % of control; under setting [5], 109 % of control.

Regarding `COc1cc(N=Nc2ccc([N+](=O)[O-])cc2)ccc1N(CCCl)CCCl`, the T/C is, setting by setting: under setting [3], 151 % of control; under setting [4], 153 % of control and 156 % of control; under setting [5], 168 % of control and 201 % of control.

As for `CNc1c(C(=O)Nc2ccccc2)c(=O)n(C)c(=O)n1C`, the T/C is 94 % of control (dose: 100.0 mg/kg/injection, schedule: Q01DX001 (ip), vehicle: Klucel (hydroxypropylcellulose) (HPC)); 92 % of control (dose: 200.0 mg/kg/injection, schedule: Q01DX001 (ip), vehicle: Klucel (hydroxypropylcellulose) (HPC)); 93 % of control (dose: 400.0 mg/kg/injection, schedule: Q01DX001 (ip), vehicle: Klucel (hydroxypropylcellulose) (HPC)).

On to `N=C(N)c1ccc(N=NNc2ccc(C(=N)N)cc2)cc1`, for which the T/C was 94 % of control (dose: 12.5 mg/kg/injection, schedule: Q01DX005 (ip), vehicle: Klucel + Tween-80); 96 % of control under setting [1]; 98 % of control (dose: 25.0 mg/kg/injection, schedule: Q01DX005 (ip), vehicle: Klucel + Tween-80); 100 % of control (dose: 50.0 mg/kg/injection, schedule: Q01DX005 (ip), vehicle: Klucel + Tween-80).

As for `COc1cccc(OC)c1OCCN`, the T/C by setting is: (dose: 50.0 mg/kg/injection, schedule: Q01DX009 (ip), vehicle: saline) 111 % of control; (dose: 100.0 mg/kg/injection, schedule: Q01DX009 (ip), vehicle: saline) 99 % of control.

For `Cc1coc2c1C(O)C1(C)C(C)CCC(O)C1C2=O` (centres undefined), the T/C is, setting by setting: (dose: 7.5 mg/kg/injection, schedule: Q01DX009 (ip), vehicle: saline with Tween-80) 101 % of control; (dose: 15.0 mg/kg/injection, schedule: Q01DX009 (ip), vehicle: saline with Tween-80) 101 % of control; (dose: 30.0 mg/kg/injection, schedule: Q01DX009 (ip), vehicle: saline with Tween-80) 101 % of control; (dose: 60.0 mg/kg/injection, schedule: Q01DX009 (ip), vehicle: saline with Tween-80) 102 % of control.

`N#Cc1ccc(N2CCCC2)c(C#N)c1Cl`: the T/C by setting is: under setting [6], 100 % of control; (dose: 100.0 mg/kg/injection, schedule: Q01DX005 (ip), vehicle: Klucel (hydroxypropylcellulose) (HPC)) 96 % of control; (dose: 200.0 mg/kg/injection, schedule: Q01DX005 (ip), vehicle: Klucel (hydroxypropylcellulose) (HPC)) 99 % of control.

For `CC(C)CCC[C@@H](C)[C@H]1CC[C@H]2[C@@H]3CC[C@H]4C[C@H](N)CC[C@]4(C)[C@H]3CC[C@]12C`, the T/C is 100 % of control (dose: 12.5 mg/kg/injection, schedule: Q01DX005 (ip), vehicle: Klucel (hydroxypropylcellulose) (HPC)); 93 % of control (dose: 25.0 mg/kg/injection, schedule: Q01DX005 (ip), vehicle: Klucel (hydroxypropylcellulose) (HPC)); 112 % of control and 97 % of control under setting [6].

With `CC1(C)CC(C)(OC(=O)c2ccccc2Cl)N=N1` (centres undefined), the T/C (dose: 11.0 mg/kg/injection, schedule: Q01DX009 (ip), vehicle: other) was 97 % of control; the T/C (dose: 12.5 mg/kg/injection, schedule: Q01DX009 (ip), vehicle: other) was 107 % of control; the T/C (dose: 16.5 mg/kg/injection, schedule: Q01DX009 (ip), vehicle: other) is 97 % of control; the T/C (dose: 25.0 mg/kg/injection, schedule: Q01DX009 (ip), vehicle: other) was 108 % of control; the T/C (dose: 37.5 mg/kg/injection, schedule: Q01DX009 (ip), vehicle: other) was 116 % of control; the T/C (dose: 50.0 mg/kg/injection, schedule: Q01DX009 (ip), vehicle: other) was 103 % of control. In addition, the T/C is 112 % of control (dose: 100.0 mg/kg/injection, schedule: Q01DX009 (ip), vehicle: other) and 116 % of control (dose: 200.0 mg/kg/injection, schedule: Q01DX009 (ip), vehicle: other).
